Seven compounds from US5869447A, “Cyclohexapeptides and their mixtures, a process for preparing them, and their use” (Hoechst Aktiengesellschaft, priority 1994, dated 1999) can be followed below.

The assay concerns IL-4 receptor (receptor/Fc fusion protein). Nature of the assay: Specific inhibition of IL-4 binding in cell-free binding assays (IC50 table). As to conditions: cell-free IL-4 binding assay, biotinylated ligand 100 ng/ml, PBSA with 5% DMSO; table does not say whether huIL-4 or muIL-4 test. From the text: Specific inhibition of IL-4 Binding in Cell-free Binding Assays.
EP 488 170 A1, which is incorporated herein by reference, discloses cell-free binding tests. For carrying them out, recombinant chimeric proteins were used which comprise the extracellular region of what are normally membrane-located receptors on to whose carboxyl terminus has been fused the Fc region of a heavy immunoglobulin chain composed of hinge, CH2 and CH3 domains. These so-called receptor/Fc fusion proteins can be bound, while retaining the specific receptor binding activity, to solid phases which have previously been coated, for example, with monoclonal antibodies directed against the Fc moiety. For this example, Nunc® type B ELISA plates were used as the solid phase. Receptor/Fc fusion proteins, dissolved in PBS containing 10 mg/ml BSA (PBSA), were bonded to these pre-treated plates (huIL-4R/Fc: 500 ng/ml; muIL-4R/Fc: 250 ng/ml; huIL-lR/Fc: 125 ng/ml; at room temperature for 1 h). […] The plates were incubated at room temperature for 1 h in PBSA containing 5% DMSO. After having been washed, the plates were incubated at room temperature for 20 min with streptavidin/peroxidase (Amersham, 1:2000 in PBSA). The bound peroxidase was detected after the plates had been washed repeatedly in a solution of tetramethylbenzidine substrate (Behringwerke). The extinction at 450 nm, which directly reflects the quantity of the biotinylated ligand bound to the receptor, was measured after the plates had been incubated for 30 min. For FIGS. 1-3, the measured extinction signal was plotted against the concentration of the competing agent with the 100% value being the extinction which was measured in the absence of any competing agent.

Values after ≈ are worked out from the molar mass of the structure shown. Square brackets hold non-standard residues; d marks the D form. Peptide text beside a SMILES is read from it. Hyp = O=C(O)[C@@H]1C[C@@H](O)CN1

`CC(C)[C@@H]1NC(=O)[C@H](Cc2ccc(O)cc2)NC(=O)[C@@H](C)NC(=O)[C@H](C(C)C)NC(=O)[C@H](Cc2ccc(O)cc2)NC(=O)[C@H](C)NC1=O` [cyclo(Tyr--Val--Ala--Tyr--Val--(D)--Ala), cyclo(Tyr-Val-Ala-Tyr-Val-(D)-Ala)] (cyclo(AYV[dA]YV)): the concentration for half-maximal inhibition (IC50) (commonly the concentration that inhibits the measured activity by half) was 8.3 µg/mL (≈ 12.4 µM).
The result for `CC(C)[C@@H]1NC(=O)[C@H](Cc2ccc(O)cc2)NC(=O)[C@@H](C)NC(=O)[C@H](C(C)C)NC(=O)[C@H](Cc2ccc(O)cc2)NC(=O)[C@H](CCCNC(=N)N)NC1=O` [cyclo(Tyr--Val--Arg--Tyr--Val--(D)--Ala), cyclo(Tyr-Val-Arg-Tyr-Val-(D)-Ala)] (cyclo(RYV[dA]YV)) reads 96.6 µg/mL (≈ 128 µM); that for `CC(C)[C@@H]1NC(=O)[C@H](Cc2ccc(O)cc2)NC(=O)[C@@H]2C[C@@H](O)CN2C(=O)[C@H](C(C)C)NC(=O)[C@H](Cc2ccc(O)cc2)NC(=O)[C@@H](C)NC1=O` [cyclo(Tyr--Val--Hyp--Tyr--Val--(D)--Ala), cyclo(Tyr-Val-Hyp-Tyr-Val-(D)-Ala)] (cyclo([Hyp]YV[dA]YV)), 17.4 µg/mL (≈ 24.5 µM).
For `CC[C@H](C)[C@@H]1NC(=O)[C@H](C(C)C)NC(=O)[C@H](Cc2ccc(O)cc2)NC(=O)[C@@H](C)NC(=O)[C@H](C(C)C)NC(=O)[C@H](Cc2ccc(O)cc2)NC1=O` [cyclo(Tyr--Val--Ile--Tyr--Val--(D)--Ala), cyclo(Tyr-Val-Ile-Tyr-Val-(D)-Ala)] (cyclo(IYV[dA]YV)), the half-inhibitory concentration (IC50) came out at 62.5 µg/mL (≈ 88.2 µM).
The result for `CC(C)C[C@@H]1NC(=O)[C@H](C(C)C)NC(=O)[C@H](Cc2ccc(O)cc2)NC(=O)[C@@H](C)NC(=O)[C@H](C(C)C)NC(=O)[C@H](Cc2ccc(O)cc2)NC1=O` [cyclo(Tyr--Val--Leu--Tyr--Val--(D)--Ala), cyclo(Tyr-Val-Leu-Tyr-Val-(D)-Ala)] (cyclo(LYV[dA]YV)) reads 41.3 µg/mL (≈ 58.3 µM); that for `CC(C)[C@@H]1NC(=O)[C@H](Cc2ccc(O)cc2)NC(=O)[C@@H](C)NC(=O)[C@H](C(C)C)NC(=O)[C@H](Cc2ccc(O)cc2)NC(=O)[C@H]([C@@H](C)O)NC1=O` [cyclo(Tyr--Val--Thr--Tyr--Val--(D)--Ala), cyclo(Tyr-Val-Thr-Tyr-Val-(D)-Ala)] (cyclo(TYV[dA]YV)), 92.0 µg/mL (≈ 132 µM).
The result for `CC(C)[C@@H]1NC(=O)[C@H](C)NC(=O)[C@H](Cc2ccc(O)cc2)NC(=O)[C@H](C(C)C)NC(=O)[C@@H](C)NC(=O)[C@H](Cc2ccc(O)cc2)NC1=O` [cyclo(Val--Tyr--Ala--Val--Tyr--(D)--Ala), cyclo(Val-Tyr-Ala-Val-Tyr-(D)-Ala)] (cyclo(AVY[dA]VY)) reads 16.7 µg/mL (≈ 25 µM).
